From the supplement of paper PMC4858399
Structures can show the parent of a compound that is named as a salt.

Experiments:
Settings in all cases: exposure time 48 h
[1] = tested on: Caenorhabditis elegans N2; assay: AC50 for larval growth inhibition (Hill fit); higher = less potent
Outline: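 After 48 h at 20°C in K-medium with killed OP50, 1% DMSO and 0.5–200 µM chemical, synchronised C. elegans N2 L1 larvae (50 per well, 96-well plates) were sized individually as extinction on a COPAS Biosort. These values were log-transformed and averaged per well, and wells with fewer than 10 worms were excluded. The AC50 was derived from a constrained Hill fit by weighted genetic-algorithm regression, and out-of-range values are censored.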

[2] = tested on: Caenorhabditis elegans N2; assay: lowest effective concentration for larval growth inhibition (size below effect threshold); higher = less potent
Outline: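 Worm size was taken as per-worm extinction on the Biosort, log-transformed and turned into well means. The larvae (C. elegans N2, L1 stage, 50 per 96-well) had spent 48 h at 20°C in K-medium with killed bacteria, 1% DMSO and 0.5, 1, 5, 10, 50, 100 or 200 µM chemical. The lowest effective concentration marks the first dose where the plate-adjusted mean size drops under a cutoff and remains under it at every higher dose; the cutoff is 5.665.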

[3] = tested on: Caenorhabditis elegans N2; assay: mean nematode size ln(EXT) after 48 h, plate-adjusted (DMSO control set to 6) (ln(EXT), control-adjusted); higher = larger nematodes / less growth inhibition
Outline: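 C. elegans N2 larvae, synchronised at L1, grew for 48 h at 20°C in K-medium with killed OP50, 1% DMSO and 0.5–200 µM chemical. Mean size per well was derived from natural-logged Biosort extinction after a growth model removed debris. Adjustment across plates involved subtracting the vehicle control mean and adding 6.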

Row | SMILES | AC50 for larval growth inhibition [1] | lowest effective concentration [2] | mean nematode size ln(EXT) (ln) ([3]; 0.5 µM) | mean nematode size ln(EXT) (ln) ([3]; 1 µM) | mean nematode size ln(EXT) (ln) ([3]; 5 µM) | mean nematode size ln(EXT) (ln) ([3]; 10 µM) | mean nematode size ln(EXT) (ln) ([3]; 50 µM) | mean nematode size ln(EXT) (ln) ([3]; 100 µM) | mean nematode size ln(EXT) (ln) ([3]; 200 µM)
1 | CC(=O)c1ccc2c(c1)[C@H](NC(=O)c1ccc(F)cc1)[C@@H](O)C(C)(C)O2 [Carabersat] | 127 µM | 200 µM | 5.79 | 5.88 | 5.9 | 5.89 | 5.99 | 5.93 | 5.65
2 | CCOC1Oc2ccc(OS(C)(=O)=O)cc2C1(C)C (configuration not stated) [Ethofumesate] | 198 µM | 200 µM | 6.01 | 6.03 | 6.14 | 6.03 | 6.14 | 6.11 | 5.44
3 | [N-]=[N+]=[N-] [Sodium azide] | > 200 µM | 50 µM | 5.79 | 5.92 | 5.83 | 5.76 | 5.63 | 5.45 | 5.49
4 | COCCOC[C@H](CC1(C(=O)N[C@H]2CC[C@@H](C(=O)O)CC2)CCCC1)C(=O)Oc1ccc2c(c1)CCC2 [Candoxatril] | > 200 µM | 200 µM | 5.96 | 5.83 | 5.92 | 5.81 | 5.91 | 5.85 | 5.66
5 | O=[N+]([O-])c1ccc(Cl)c(Cl)c1 [1,2-Dichloro-4-nitrobenzene] | 111 µM | 100 µM | 5.95 | 5.94 | 5.93 | 5.99 | 5.79 | 5.66 | 5.54
6 | Cc1c(C(=O)O)c(O)cc2c1C(=O)c1c(O)c([C@@H]3O[C@H](CO)[C@@H](O)[C@H](O)[C@H]3O)c(O)c(O)c1C2=O [Carminic acid] | 115 µM | 100 µM | 5.97 | 5.92 | 5.91 | 5.96 | 5.97 | 5.46 | 
7 | COC(=O)c1c(C(F)F)nc(C(F)(F)F)c(C2=NCCS2)c1CC(C)C [Thiazopyr] | 73.2 µM | 50 µM | 6.05 | 5.89 | 6 | 5.98 | 4.8 | 4.4 | 3.61
8 | CCCCCCC(=O)O [Heptanoic acid] | > 200 µM | 200 µM | 5.88 | 5.97 | 5.87 | 6.04 | 5.85 | 5.87 | 5.43
9 | CCCCC(CC)COC(=O)CC(C(=O)OCC(CC)CCCC)S(=O)(=O)O (configuration not stated) [Docusate sodium] | 57.1 µM | 50 µM | 5.96 | 5.98 | 5.93 | 5.93 | 4.65 | 4.05 | 3.28
10 | CCC(=O)C(CC(C)N(C)C)(c1ccccc1)c1ccccc1 (configuration not stated) [Methadone Hydrochloride] | > 200 µM | 200 µM | 5.87 | 5.81 | 5.87 | 5.88 | 5.7 | 5.81 | 5.54
11 | CCOC(=O)C(C)(C)Oc1ccc(Cl)cc1 [Clofibrate] | > 200 µM | 200 µM | 6.01 | 5.8 | 5.86 | 5.81 | 5.75 | 5.78 | 5.54
12 | S=C([S-])NCCNC(=S)[S-].[Mn+2] [Maneb] | > 200 µM | 200 µM | 5.91 | 5.98 | 6.05 | 5.98 | 5.9 | 5.83 | 5.52
13 | COc1ccc(C(=CC(=O)N2CCOCC2)c2ccc(Cl)cc2)cc1OC [Dimethomorph] | 117 µM | 100 µM | 6 | 5.98 | 6.05 | 6.03 | 5.92 | 5.54 | 4.95
14 | c1ccc(C(O[C@@H]2CCCN(CCc3ccc4c(c3)OCO4)C2)c2ccccc2)cc1 [Zamifenacin] | 70.4 µM | 10 µM | 5.83 | 5.81 | 5.73 | 5.55 | 4.99 | 4.17 | 3.31
15 | O=C1c2c(O)cccc2Cc2cccc(O)c21 [Dithranol] | 189 µM | 200 µM | 5.83 | 5.82 | 5.81 | 5.77 | 5.67 | 5.74 | 4.35
16 | CCc1ccc(C(=O)NN(C(=O)c2cc(C)cc(C)c2)C(C)(C)C)cc1 [Tebufenozide] | > 200 µM | 200 µM | 6.1 | 6.49 | 6.28 | 6.07 | 5.96 | 6.06 | 5.38
17 | Oc1cccc2cccnc12 [8-Hydroxyquinoline] | > 200 µM | 200 µM | 5.89 | 5.92 | 5.91 | 5.83 | 5.78 | 5.72 | 5.56
18 | CN(C)c1nc(=O)n(C2CCCCC2)c(=O)n1C [Hexazinone] | 109 µM | 200 µM | 5.85 | 5.89 | 5.89 | 5.92 | 6 | 5.92 | 5.62
19 | O=C(Oc1ccc(Br)cc1)N1CCN2CCC1CC2 [4-bromophenyl 1,4-diazabicyclo[3.2.2]nonane-4-carboxylate] | > 200 µM | 50 µM | 5.84 | 5.83 | 5.81 | 5.83 | 5.65 | 5.6 | 5.33
20 | CC(C)CCCCCCCOC(=O)c1ccccc1C(=O)OCCCCCCCC(C)C [Diisodecyl phthalate] | > 200 µM | 200 µM | 5.44 | 5.55 | 5.58 | 5.72 | 5.68 | 5.67 | 5.66
21 | CCCCCCCCCCCCCN1CC(C)OC(C)C1 (configuration not stated) [Tridemorph] | 174 µM | 100 µM | 5.89 | 5.94 | 5.84 | 5.85 | 5.73 | 5.49 | 4.26
22 | O=[N+]([O-])c1ccccc1 [Nitrobenzene] | 193 µM | 200 µM | 6.01 | 5.97 | 6.01 | 6.12 | 6.23 | 6.14 | 5.65
